Holding throughout (test): NCI tumour cell line growth inhibition, 48 h
For assay [1], the system named is HCC-2998 colon.
In assay [2] the test system is M14 melanoma.
In assay [3] the test system is DU-145 prostate.
The test system of assay [4] is RXF 393 renal.
The test system of assay [5] is PC-3 prostate.
In assay [6] the test system is SK-OV-3 ovarian.
The subject of assay [7] is HS 578T breast.
Assay [8] concerns HT29 colon.
Assay [9] concerns MCF7 breast.
Assay [10] concerns EKVX NSCLC.

The values below come from PubChem BioAssay (NCI).

Each structure is given as a SMILES string.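 Cultured in 96-well plates, cells were exposed to test compound for 48 hours across five concentrations. GI50: concentration for 50% inhibition of growth. At the TGI there is no net growth.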

Turning to `CC(=O)OCC1OC(Nn2c(=O)[nH]c3ccccc3c2=O)C(OC(C)=O)C(OC(C)=O)C1OC(C)=O` (stereo not given), the TGI was 53 µM in assay [1]; over 100 µM in [2]; over 100 µM in [3]; over 100 µM in [4]; over 100 µM in assay [5]; over 100 µM in [6]. Further, the TGI in assay [7], in [8], in assay [9] and in assay [10] was over 100 µM each time.

Take `N#Cc1c(-c2ccc(Cl)cc2)[nH]c(=O)n(C2OC(CO)C(O)C(O)C2O)c1=O` (stereo not given): the TGI in [1], in assay [2], in [3], in [4], in assay [5] and in assay [6] was over 100 µM in each case. Moreover, the TGI in [7], in assay [8], in assay [9] and in [10] was over 100 µM throughout.

`O=c1[nH]nc(-c2ccccc2)n1/N=C/c1cccs1`: the TGI in assay [1] is over 100 µM; in assay [2], over 100 µM; in assay [3] it was over 100 µM; in assay [4] it was 85.2 µM; in [5] it was over 100 µM; in assay [6] it was over 100 µM. Moreover, the TGI in assay [7], in assay [8], in assay [9] and in assay [10] was over 100 µM in each case.

Take `COc1ccc(N2C(=O)C3c4[nH]c5ccc(Br)cc5c4C4CCC(C(C)(C)C)CC4C3C2=O)cc1` (stereo not given): the TGI in assay [1], in assay [2], in [3], in assay [4], in [5] and in assay [6] was over 100 µM in each case. Further, the TGI in assay [7], in assay [8], in [9] and in assay [10] was over 100 µM each time.

For the compound `CC(C)[C@H](NC(=O)[C@H](N)Cc1ccc(N(CCCl)CCCl)cc1)C(=O)O`, the TGI in assay [1], in assay [2], in assay [3], in [4], in assay [5] and in assay [6] was over 100 µM in each case. The TGI in assay [7], in [8], in [9] and in assay [10] was over 100 µM throughout.

As to `CC1SCc2nc3ccccc3n21` (stereo not given), the TGI in assay [1], in assay [2], in [3], in assay [4], in assay [5] and in assay [6] was over 100 µM in each case. The TGI in assay [7], in assay [8], in assay [9] and in assay [10] was over 100 µM throughout.

Consider `COc1ccccc1C1ON=C(c2ccc([N+](=O)[O-])cc2)N1C12CC3CC(CC(C3)C1)C2` (stereo not given), for which the TGI in assay [1] was over 100 µM; in [2] it was over 100 µM; in assay [3], over 100 µM; in assay [4], 60.4 µM; in [5] it was over 100 µM; in [6], over 100 µM. For the same compound, the TGI in assay [7], in assay [8], in assay [9] and in assay [10] was over 100 µM each time.

In the case of `COC(=O)C1(C#N)C(C)(C)N=C(c2ccccc2)C12CCCCC2` (stereo not given), the TGI in [1], in [2], in [3], in assay [4], in [5] and in assay [6] was over 100 µM in each case. The TGI in assay [7], in assay [8], in assay [9] and in [10] was over 100 µM each time.

`COc1cc(C2c3cc4c(cc3OC(NNS(=O)(=O)c3ccc(C)cc3)C2C)OCO4)cc(OC)c1O` (stereo not given): the TGI in assay [1] is over 100 µM; in [2], 58.2 µM; in assay [3], over 100 µM; in assay [4] it was 54 µM; in [5] it was 14 µM; in assay [6] it was 79.2 µM. Further, the TGI in [7] came to 55.3 µM; in assay [8], 49.6 µM; in assay [9] it was 36.1 µM; in [10], 49.8 µM.

On to `C/C=C(\C)C(O)C(C)C(O)C/C=C(C)/C=C(\C)C/C(C)=C/C/C=C(\C)C(O)C(C)c1ccc(CCC)c(=O)o1` (stereo not given), for which the TGI in assay [1] was 26.4 µM; in [2], 28.4 µM; in assay [3], 91.7 µM; in assay [4] it was 77.3 µM; in [5], 21.3 µM; in assay [6] it was 94.5 µM. The TGI is 37.9 µM in [7], 3.32 µM in assay [8], 22.9 µM in assay [9] and over 100 µM in [10].

Regarding `NC(=O)NCCCC(NC(=O)OCCCCCCn1ccc(=O)[nH]c1=O)C(=O)O` (stereo not given), the TGI in [1], in assay [2], in assay [3], in [4], in assay [5] and in [6] was over 100 µM throughout. Besides, the TGI in assay [7], in assay [8], in assay [9] and in [10] was over 100 µM throughout.

As for `CS(=O)(=O)c1ccc(N=C/C=C/Nc2ccc(S(C)(=O)=O)cc2)cc1`, the TGI in [1], in assay [2], in assay [3], in assay [4], in assay [5] and in [6] was over 100 µM each time. For the same compound, the TGI in assay [7], in [8], in assay [9] and in assay [10] was over 100 µM in each case.

For `CC[C@@]1(C)CCC2c3ccc(O)cc3CC[C@H]2C1C` (stereo not given in full), the TGI stood at 27.1 µM in assay [1]; 30.3 µM in assay [2]; 30.4 µM in assay [3]; 26 µM in assay [4]; 34 µM in assay [5]; 35.5 µM in [7]. The TGI came out at 34.1 µM in [8], 30.3 µM in [9] and 34 µM in assay [10].

In the case of `CC(C)=CCC/C(C)=C/CC/C(C)=C/CC/C(C)=C/CC/C(C)=C/CC/C(C)=C/CC/C(C)=C/CC/C(C)=C/CC/C(C)=C/CO`, the TGI in [1], in [2], in assay [3], in assay [4], in assay [5] and in assay [6] was over 100 µM each time. The TGI in [7], in assay [8], in assay [9] and in assay [10] was over 100 µM each time.

For the compound `COC(=O)c1cc(C(=CCC[C@H]2CC[C@@]3(C)C(CCC4C3CC[C@@]3(C)C4CC[C@@H]3C(C)CCCC(C)C)C2)c2cc(Cl)c(O)c(C(=O)OC)c2)cc(Cl)c1O` (stereo not given in full), the TGI in assay [1], in assay [2], in [3], in assay [4], in assay [5] and in assay [6] was over 10 µM throughout. Further, the TGI in assay [7], in assay [8], in assay [9] and in assay [10] was over 10 µM throughout.

`CC(=O)O[C@H]1CC[C@@]2(C)C(=CC[C@@H]3[C@@H]2CC[C@]2(C)c4c(C)nn(-c5ccccc5)c4C[C@@H]32)C1`: the TGI in assay [1] was 30.6 µM; in assay [2] it was over 100 µM; in assay [3], 37.2 µM; in assay [4], 19.3 µM; in [5], over 100 µM; in [6], 44.5 µM. For the same compound, the TGI in assay [7] is 67.2 µM; in assay [8], over 100 µM; in [9], over 100 µM; in [10], 53.7 µM.

For `O=c1[nH]nc(Cc2c[nH]c3ccccc23)o1`, the TGI in assay [1], in assay [2], in [3], in assay [4], in assay [5] and in assay [7] was over 100 µM in each case. Besides, the TGI in assay [8], in [9] and in assay [10] was over 100 µM each time.

For the compound `O=C(Nc1ccc(-n2ccc3c(NC(=O)c4ccccc4)ncnc32)cc1)Nc1ccc(Cl)c(Cl)c1`, the GI50 was 5.34 µM in [1]; 2420 nM in assay [2]; 1900 nM in assay [3]; 6.48 µM in assay [4]; 1060 nM in assay [5]; 1190 nM in [7]. Moreover, the GI50 is 965 nM in [8], 1900 nM in [9] and 7.24 µM in assay [10]. Moreover, the TGI in assay [1] was found to be 20.7 µM; in assay [2] it was 8.11 µM; in assay [3] it was 6.31 µM; in assay [4] it was 13.3 µM; in assay [5], 2.86 µM; in assay [7], 5.77 µM. Further, the results for the TGI in assay [8], in [9] and in [10] were 2.9 µM, 8.25 µM and 21 µM, respectively.

In the case of `CC(=O)Nc1c(C)cc2c(nc3n2CCC3OC(C)=O)c1[N+](=O)[O-]` (stereo not given), the TGI in assay [2], in [3], in [4], in assay [5], in assay [6] and in [7] was over 100 µM each time. Also, the TGI in assay [8], in assay [9] and in assay [10] was over 100 µM throughout.
